Results taken from patent publication US20120029187A1, “HALOALKYLSULFONANILIDE DERIVATIVE” (Nissan Chemical Industries, Ltd., priority 2009, published 2012).

How the values were obtained:
Format in all cases: in vivo
bulrush [1] = test: Test Example 1: herbicidal effects in preemergence treatment under submerged conditions; conditions: dose 2.52 g/a
How it was run: (§1)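 Submerged conditions, 4 cm water over alluvial soil. Weeds sown and 2.5-leaf rice transplanted; compound applied preemergence to water surface, doses in g per are. Greenhouse, 25 to 30° C., three weeks, then 0–5 mortality rating.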

ducksalad [2] = test: as above; conditions: dose 2.52 g/a
How it was run: as §1

barnyardgrass [3] = test: as above; conditions: dose 2.52 g/a
How it was run: as §1

transplanted rice = test: Test Example 1: preemergence treatment under submerged conditions, effect on crop; conditions: dose 2.52 g/a
How it was run: as §1

Italian ryegrass [4] = test: Test Example 4: herbicidal effect in foliage treatment; conditions: dose 3.2 g/a, three weeks after the application
How it was run: (§2)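 Weeds and crops sown in sterilized diluvial soil under ~1.5 cm cover and grown in greenhouse at 25 to 30° C. At 14 days, water-diluted emulsifiable concentrate sprayed onto foliage at set doses (g/a); herbicidal effect scored on a rating scale three weeks after application.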

redroot pigweed [5] = test: as above; conditions: dose 3.2 g/a, three weeks after the application
How it was run: as §2

velvetleaf [6] = test: as above; conditions: dose 3.2 g/a, three weeks after the application
How it was run: as §2

water foxtail [7] = test: as above; conditions: dose 3.2 g/a, three weeks after the application
How it was run: as §2

large crabgrass [8] = test: as above; conditions: dose 3.2 g/a, three weeks after the application
How it was run: as §2

giant foxtail [9] = test: as above; conditions: dose 3.2 g/a, three weeks after the application
How it was run: as §2

common chickweed [10] = test: as above; conditions: dose 3.2 g/a, three weeks after the application
How it was run: as §2

common ragweed [11] = test: as above; conditions: dose 3.2 g/a, three weeks after the application
How it was run: as §2

common lambsquater [12] = test: as above; conditions: dose 3.2 g/a, three weeks after the application
How it was run: as §2

beadstraw = test: as above; conditions: dose 3.2 g/a, three weeks after the application
How it was run: as §2

barnyardgrass [13] = test: as above; conditions: dose 3.2 g/a, three weeks after the application
How it was run: as §2

posumbu knotweed [14] = test: as above; conditions: dose 3.2 g/a, three weeks after the application
How it was run: as §2

bulrush [15] = test: Test Example 2: herbicidal effects during the vegetation period under submerged conditions; conditions: treatment during the vegetation period under submerged conditions; dose 2.52 g/a
How it was run: (§3)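 Barnyardgrass, bulrush and ducksalad were co-sown in alluvial soil flooded to 4 cm and grown in a greenhouse at 25 to 30° C. At the 1- or 2-leaf stage, water-diluted emulsifiable concentrates went onto the water surface at set doses (g/a). Herbicidal effect was scored three weeks later on a graded scale.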

ducksalad [16] = test: as above; conditions: treatment during the vegetation period under submerged conditions; dose 2.52 g/a
How it was run: as §3

barnyardgrass [17] = test: as above; conditions: treatment during the vegetation period under submerged conditions; dose 2.52 g/a
How it was run: as §3

Italian ryegrass [18] = test: Test Example 3: herbicidal effects in soil treatment; conditions: dose 3.2 g/a
How it was run: (§4)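 Seeds were sown in sterilized diluvial soil and covered with about 1.5 cm of soil. Compounds, formulated as emulsifiable concentrates and diluted with water, were sprayed evenly over the soil surface at set doses in g/a. Herbicidal effect was scored on a rating scale three weeks later.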

redroot pigweed [19] = test: as above; conditions: dose 3.2 g/a
How it was run: as §4

velvetleaf [20] = test: as above; conditions: dose 3.2 g/a
How it was run: as §4

water foxtail [21] = test: as above; conditions: dose 3.2 g/a
How it was run: as §4

large crabgrass [22] = test: as above; conditions: dose 3.2 g/a
How it was run: as §4

giant foxtail [23] = test: as above; conditions: dose 3.2 g/a
How it was run: as §4

common chickweed [24] = test: as above; conditions: dose 3.2 g/a
How it was run: as §4

common ragweed [25] = test: as above; conditions: dose 3.2 g/a
How it was run: as §4

common lambsquater [26] = test: as above; conditions: dose 3.2 g/a
How it was run: as §4

barnyardgrass [27] = test: as above; conditions: dose 3.2 g/a
How it was run: as §4

posumbu knotweed [28] = test: as above; conditions: dose 3.2 g/a
How it was run: as §4

SMILES	B: bulrush, herbicidal effect (evaluation scale 0-5) (bulrush [1])	C: ducksalad, herbicidal effect (evaluation scale 0-5) (ducksalad [2])	A: barnyardgrass, herbicidal effect (evaluation scale 0-5) (barnyardgrass [3])	a: transplanted rice, effect on crop (evaluation scale 0-5) (transplanted rice)	H: Italian ryegrass, herbicidal effect (Italian ryegrass [4])	K: redroot pigweed, herbicidal effect (redroot pigweed [5])	I: velvetleaf, herbicidal effect (velvetleaf [6])	G: water foxtail, herbicidal effect (water foxtail [7])	D: large crabgrass, herbicidal effect (large crabgrass [8])	E: giant foxtail, herbicidal effect (giant foxtail [9])	N: common chickweed, herbicidal effect (common chickweed [10])	J: common ragweed, herbicidal effect (common ragweed [11])	L: common lambsquater, herbicidal effect (common lambsquater [12])	O: beadstraw, herbicidal effect (beadstraw)	A: barnyardgrass, herbicidal effect (barnyardgrass [13])	M: posumbu knotweed, herbicidal effect (posumbu knotweed [14])	B: bulrush, herbicidal effect (evaluation scale 0-5) (bulrush [15])	C: ducksalad, herbicidal effect (evaluation scale 0-5) (ducksalad [16])	A: barnyardgrass, herbicidal effect (evaluation scale 0-5) (barnyardgrass [17])	herbicidal effect, H: Italian ryegrass (Italian ryegrass [18])	also measured
CCOC(=O)N(c1ccccc1CN1OCCOC1=O)S(=O)(=O)C(F)(F)F [III-2]	5 (mortality of 90% or above (nearly complete death))	5 (mortality of 90% or above (nearly complete death))	4 (mortality of at least 70% and less than 90%)	0 (mortality of less than 5% (almost ineffective))	3 (mortality of at least 40% and less than 70%)	3 (mortality of at least 40% and less than 70%)	4 (mortality of at least 70% and less than 90%)	5 (mortality of 90% or above (nearly complete death))	0 (mortality of less than 5% (almost ineffective))	0 (mortality of less than 5% (almost ineffective))	3 (mortality of at least 40% and less than 70%)	4 (mortality of at least 70% and less than 90%)	3 (mortality of at least 40% and less than 70%)	3 (mortality of at least 40% and less than 70%)	4 (mortality of at least 70% and less than 90%)	4 (mortality of at least 70% and less than 90%)	5 (mortality of 90% or above (nearly complete death))	4 (mortality of at least 70% and less than 90%)	3 (mortality of at least 40% and less than 70%)	3 (mortality of at least 40% and less than 70%)	herbicidal effect, K: redroot pigweed (redroot pigweed [19]): 0 (mortality of less than 5% (almost ineffective)); herbicidal effect, I: velvetleaf (velvetleaf [20]): 5 (mortality of 90% or above (nearly complete death)); herbicidal effect, G: water foxtail (water foxtail [21]): 5 (mortality of 90% or above (nearly complete death)); herbicidal effect, D: large crabgrass (large crabgrass [22]): 0 (mortality of less than 5% (almost ineffective)); herbicidal effect, E: giant foxtail (giant foxtail [23]): 0 (mortality of less than 5% (almost ineffective)); herbicidal effect, N: common chickweed (common chickweed [24]): 3 (mortality of at least 40% and less than 70%); herbicidal effect, J: common ragweed (common ragweed [25]): 0 (mortality of less than 5% (almost ineffective)); herbicidal effect, L: common lambsquater (common lambsquater [26]): 5 (mortality of 90% or above (nearly complete death)); herbicidal effect, A: barnyardgrass (barnyardgrass [27]): 4 (mortality of at least 70% and less than 90%); herbicidal effect, M: posumbu knotweed (posumbu knotweed [28]): 4 (mortality of at least 70% and less than 90%)
CCC1CON(Cc2ccccc2N(C(=O)OCCCl)S(=O)(=O)C(F)(F)F)C(=O)O1 (stereo not drawn) [III-7]	5 (mortality of 90% or above (nearly complete death))	5 (mortality of 90% or above (nearly complete death))	5 (mortality of 90% or above (nearly complete death))	0 (mortality of less than 5% (almost ineffective))	0 (mortality of less than 5% (almost ineffective))	3 (mortality of at least 40% and less than 70%)	0 (mortality of less than 5% (almost ineffective))	5 (mortality of 90% or above (nearly complete death))	3 (mortality of at least 40% and less than 70%)	3 (mortality of at least 40% and less than 70%)	3 (mortality of at least 40% and less than 70%)	4 (mortality of at least 70% and less than 90%)	4 (mortality of at least 70% and less than 90%)	2 (mortality of at least 20% and less than 40%)	5 (mortality of 90% or above (nearly complete death))	0 (mortality of less than 5% (almost ineffective))	5 (mortality of 90% or above (nearly complete death))	5 (mortality of 90% or above (nearly complete death))	5 (mortality of 90% or above (nearly complete death))	4 (mortality of at least 70% and less than 90%)	herbicidal effect, K: redroot pigweed (redroot pigweed [19]): 1 (mortality of at least 5% and less than 20%); herbicidal effect, I: velvetleaf (velvetleaf [20]): 0 (mortality of less than 5% (almost ineffective)); herbicidal effect, G: water foxtail (water foxtail [21]): 5 (mortality of 90% or above (nearly complete death)); herbicidal effect, D: large crabgrass (large crabgrass [22]): 5 (mortality of 90% or above (nearly complete death)); herbicidal effect, E: giant foxtail (giant foxtail [23]): 5 (mortality of 90% or above (nearly complete death)); herbicidal effect, N: common chickweed (common chickweed [24]): 5 (mortality of 90% or above (nearly complete death)); herbicidal effect, J: common ragweed (common ragweed [25]): 4 (mortality of at least 70% and less than 90%); herbicidal effect, L: common lambsquater (common lambsquater [26]): 4 (mortality of at least 70% and less than 90%); herbicidal effect, A: barnyardgrass (barnyardgrass [27]): 5 (mortality of 90% or above (nearly complete death)); herbicidal effect, M: posumbu knotweed (posumbu knotweed [28]): 4 (mortality of at least 70% and less than 90%)
